These results are taken from ChEMBL document CHEMBL4673243, “Discovery of 9-Cyclopropylethynyl-2-((S)-1-[1,4]dioxan-2-ylmethoxy)-6,7-dihydropyrimido[6,1-a]isoquinolin-4-one (GLPG1205), a Unique GPR84 Negative Allosteric Modulator Undergoing Evaluation in a Phase II Clinical Trial” (J Med Chem, 2020).

Data set [1] can be described thus: Clearance in CD1 mouse at 1 mg/kg, iv administered as single bolus dose using PEG-200/saline formulation measured after 24 hrs by LC-MS/MS analysis. Conditions: in vivo.
Data set [2] in a line: physchem. As to conditions: aqueous solution with 2% DMSO, pH 7.4.
The nature of data set [3]: Half-life in plasma of Balb/c mouse model of DSS-induced colitis at 3 mg/kg, po administered using PEG-200/water formulation starting from day 1 to 11 measured by LC-MS analysis.
Data set [4] is described as follows: in vivo. Conditions: Balb/c, mouse, plasma, po, 3 mg/kg.
Data set [5] is described as follows: in vitro. Conditions: dog, cryopreserved hepatocytes.
A short description of data set [6]: in vitro. As to conditions: rat, liver microsomes. Background: Liver microsomes are a subcellular fraction often used to study metabolism.
The nature of data set [7]: in vitro. As to conditions: human, cryopreserved hepatocytes.
Data set [8] is described as follows: in vitro. As to conditions: mouse, cryopreserved hepatocytes.
The nature of data set [9]: in vitro. As to conditions: mouse, liver microsomes.
A short description of data set [10]: Half-life in plasma of Balb/c mouse model of DSS-induced colitis at 10 mg/kg, po administered using PEG-200/water formulation starting from day 1 to 11 measured by LC-MS analysis.
Data set [11] in a line: in vivo. Conditions: Balb/c, mouse, plasma, po, 3 mg/kg. The source holds these as a separate data set.
Data set [12] in a line: in vivo. Conditions: Balb/cj, mouse, plasma, po, 10 mg/kg.
Data set [13] can be described thus: Plasma protein binding in mouse at 5 uM measured after 4 hrs by LC-MS/MS analysis.
Data set [14] is described as follows: Thermodynamic solubility of compound at pH 7.4. As to conditions: buffer.
The target in data set [15] is Cytochrome P450 2C9 (Homo sapiens) (UniProt P11712).
Data set [16] deals with Cytochrome P450 3A4 (Homo sapiens, UniProt P08684). Briefly: Inhibition of CYP3A4 in human liver microsomes using midazolam as substrate and in presence of co-factor preincubated for 20 mins followed by substrate addition by LC-MS/MS analysis.
The nature of data set [17]: in vitro. As to conditions: rat, cryopreserved hepatocytes.
Data set [18] addresses T1, Cytochrome P450 1A2 (Homo sapiens, UniProt P05177).
T1 sequence (P05177 whole entry): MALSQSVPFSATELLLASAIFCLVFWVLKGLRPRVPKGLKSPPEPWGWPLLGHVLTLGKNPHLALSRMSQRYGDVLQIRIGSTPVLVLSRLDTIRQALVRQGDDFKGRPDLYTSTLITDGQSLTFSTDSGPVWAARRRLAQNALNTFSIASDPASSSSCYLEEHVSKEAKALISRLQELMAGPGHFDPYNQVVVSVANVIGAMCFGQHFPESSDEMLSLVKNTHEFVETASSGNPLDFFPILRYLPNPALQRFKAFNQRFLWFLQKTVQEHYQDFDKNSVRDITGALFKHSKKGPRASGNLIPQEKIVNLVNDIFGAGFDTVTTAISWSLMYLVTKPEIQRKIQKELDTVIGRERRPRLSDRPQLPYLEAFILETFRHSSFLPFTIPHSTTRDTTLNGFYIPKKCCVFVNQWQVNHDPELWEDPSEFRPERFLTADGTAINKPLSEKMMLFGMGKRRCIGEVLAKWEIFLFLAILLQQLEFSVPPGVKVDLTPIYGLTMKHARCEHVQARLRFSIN
Briefly: Inhibition of CYP1A2 in human liver microsomes using probe substrate and in presence of co-factor preincubated for 20 mins followed by substrate addition by LC-MS/MS analysis.

The nature of data set [19]: in vivo. As to conditions: Beagle, dog, po.
Data set [20] is described as follows: in vivo. As to conditions: male, Sprague-Dawley, rat, po.
The nature of data set [21]: in vitro. Conditions: human, liver microsomes.

pIC50: −log10 of the molar value. Converted amounts (≈) assume the structure as drawn.

Sequence of Cytochrome P450 2C9 (Homo sapiens) (P11712 whole entry, looked up): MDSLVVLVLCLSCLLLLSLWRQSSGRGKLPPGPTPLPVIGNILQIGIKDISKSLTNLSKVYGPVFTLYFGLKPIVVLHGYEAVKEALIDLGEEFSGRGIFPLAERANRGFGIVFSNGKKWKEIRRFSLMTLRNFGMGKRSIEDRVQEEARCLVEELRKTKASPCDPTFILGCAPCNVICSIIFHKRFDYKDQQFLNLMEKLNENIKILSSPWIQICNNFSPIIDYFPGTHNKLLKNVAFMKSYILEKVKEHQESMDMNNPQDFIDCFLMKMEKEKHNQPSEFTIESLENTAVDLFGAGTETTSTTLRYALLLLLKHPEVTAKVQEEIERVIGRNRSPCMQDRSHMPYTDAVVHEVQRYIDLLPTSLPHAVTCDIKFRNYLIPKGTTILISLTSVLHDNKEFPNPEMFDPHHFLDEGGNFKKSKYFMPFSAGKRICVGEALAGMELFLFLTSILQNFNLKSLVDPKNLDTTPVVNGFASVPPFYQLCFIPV
Sequence of Cytochrome P450 3A4 (P08684 whole entry): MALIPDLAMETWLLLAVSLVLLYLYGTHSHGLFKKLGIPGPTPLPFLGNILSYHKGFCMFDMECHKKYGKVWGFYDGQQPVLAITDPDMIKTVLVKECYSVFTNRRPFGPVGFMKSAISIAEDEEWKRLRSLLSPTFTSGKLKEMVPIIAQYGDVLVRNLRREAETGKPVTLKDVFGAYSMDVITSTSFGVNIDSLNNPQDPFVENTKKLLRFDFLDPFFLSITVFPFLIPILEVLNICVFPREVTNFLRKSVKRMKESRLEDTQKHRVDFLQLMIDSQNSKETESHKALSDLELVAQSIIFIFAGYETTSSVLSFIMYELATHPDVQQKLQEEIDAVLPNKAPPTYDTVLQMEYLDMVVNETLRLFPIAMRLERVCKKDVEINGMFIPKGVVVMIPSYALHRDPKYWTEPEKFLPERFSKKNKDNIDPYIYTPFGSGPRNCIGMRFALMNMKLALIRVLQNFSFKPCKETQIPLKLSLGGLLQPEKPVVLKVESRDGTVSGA

The clearance is a measure of how efficiently the substance is removed, as volume per time. Read a low clearance as a low capacity for elimination. As a reminder, the solubility is the concentration that dissolves in the medium under given conditions. By half-life is commonly meant the time needed for the level to fall by half in the phase considered. High values mean slow decline, low ones rapid decline. For orientation: Cmax means the peak of the concentration-time curve. In general, CLint scaled refers to the capacity of the preparation to metabolise the compound, expressed as a volume cleared per time. Usually Tmax stands for the time at which the peak concentration occurs. By fraction unbound is commonly meant free concentration divided by total concentration. The term solubility (thermodynamic) denotes solubility found after equilibrating the solid with the medium. The term pIC50 denotes −log10 of the IC50, conventionally taken in molar units. By bioavailability is commonly meant the share of a dose that reaches the circulation, judged against a reference dose that is usually intravenous. Read a low bioavailability as poor availability. The compound `O=c1nc(OC[C@@H]2COCCO2)cc2n1CCc1cc(C#CC3CC3)ccc1-2` [GLPG-1205] gave a clearance at 24 h in [1] of 15 mL/min/kg. Besides, the solubility in data set [2] is 113 µg/mL (≈ 299 µM). Also, the figures for the half-life in [3] and in [10] were 2.9 h and 2.3 h, respectively. Further, the figures for the Cmax in [4] and in data set [12] were 1840 ng/mL and 8140 ng/mL, respectively. For the same compound, the half-life at 1 µM in [5], in data set [7], in data set [8] and in data set [17] was above 3.33 h throughout. In addition, the results for the CLint scaled at 0.5 h, 1 µM in data set [6], in data set [9] and in data set [21] were 66.7 mL/min/kg, 133 mL/min/kg and below 19.3 mL/min/kg, respectively. The time to peak (Tmax) in [11] amounted to 1 h. For the same compound, in data set [13], the fraction unbound at 4 h, 5 µM was 0.022. The compound further had a thermodynamic solubility in data set [14] of 7.75 µg/mL (≈ 20.5 µM). Further, the figures for the pIC50 in data set [15], in [16] and in [18] were 4.46, below 4.30 and below 4.00, respectively. This compound yielded a bioavailability in [19] above 100%. Besides, in data set [20], the peak concentration (Cmax) at 24 h came to 1160 ng/mL.
